Counter-ions that a name gives are not always drawn.
What was measured:
[1] = target: T1, NK-2 receptors (Rattus norvegicus, UniProt P16610); test: Binding to NK-2 receptors (inhibition of radioactive 125I-neurokinin A binding); type: Fischer strain male rats (duodenum membranes); details: rat duodenum membrane; 125I-neurokinin A 1×10^-9 M; 90 min, room temperature; read-out: IC50 of drugs in binding of radioactive neurokinin A
T1 construct: Duodenums isolated from Fischer strain male rats were homogenized; from tissue; host or cells: duodenum membranes of male Fischer rats
T1 sequence (P16610 1-390): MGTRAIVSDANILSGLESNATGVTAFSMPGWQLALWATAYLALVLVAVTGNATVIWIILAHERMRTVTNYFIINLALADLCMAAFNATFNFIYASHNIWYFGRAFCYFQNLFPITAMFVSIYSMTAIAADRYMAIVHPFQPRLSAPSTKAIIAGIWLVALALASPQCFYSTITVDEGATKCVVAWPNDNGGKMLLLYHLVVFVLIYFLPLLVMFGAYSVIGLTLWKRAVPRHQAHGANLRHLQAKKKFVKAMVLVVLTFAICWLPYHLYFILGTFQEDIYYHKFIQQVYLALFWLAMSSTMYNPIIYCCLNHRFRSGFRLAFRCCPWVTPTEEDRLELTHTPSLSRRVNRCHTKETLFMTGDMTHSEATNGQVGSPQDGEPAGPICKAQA
Experimental: Duodenums isolated from Fischer strain male rats were homogenized in 50 mM Tris-hydrochloric acid buffer (pH 7.4) containing saccharose (100 mg/ml) and ethylenediaminetetraacetic acid (1 mM), and the resulting homogenate was centrifuged at 48,000 g and 4° C. for 20 minutes. The pellet thus obtained was washed three times with 10 times as much 50 mM Tris-hydrochloric acid buffer (pH 7.4) containing KCl (300 mM) and ethylenediaminetetraacetic acid (10 mM) as the pellet by volume, and the resulting membrane preparation was suspended in 10 times as much 50 mM Tris-hydrochloric acid buffer (pH 7.4) as the membrane preparation by volume and stored at -80° C. until use. The membrane preparation (20 mg/ml) was incubated together with a radioactive ligand ^125 I-neurokinin A (1×10^-9 M) at room temperature for 90 minutes in the presence of each drug or a solvent therefor in 50 mM Tris-hydrochloricacid buffer (pH 7.4) containing bovine serum albumin (10 mg/ml), bacitracin (40 μg/ml), leupeptin (4 μg/ml), chymostatin (50 μg/ml), antipain (1×10^-4 M) and MnCl2 (1 mM). […] Then, radioactivity in the filter was measured with a gamma counter. The 50% inhibitory concentration (IC50) of the drug was determined by means of a regression line by considering radioactivity in the presence of Nle10 neurokinin A (4-10) (3×10^-6 M) to be due to nonspecific binding, and measuring the rate of inhibition of specific binding by the drug by carrying out a control experiment using the solvent alone.

[2] = system: NK-2 receptors; test: Antagonism for NK-2 receptors (neurokinin A induced contraction of isolated trachea); type: cell-based, Hartley strain male guinea pigs; details: concentration 5 × 10^-9 M; neurokinin A 1×10^-9 M; guinea pig trachea; 110 min incubation
Experimental: Hartley strain male guinea pigs were killed by a blow on the head and blood-letting, and the tracheas were isolated. Specimens each composed of five slices of the trachea were prepared, and suspended at a tension of 0.5 gw in a magunus bath with an internal volume of 15 ml containing Krebs-Henseleit solution of 37° C. while introducing a mixed gas of 95% O2 +5% CO2 into the bath. As the Krebs-Henseleit solution, that containing indomethacin ([…]) was used for preventing the participation of intrinsic prostaglandins. After confirming the maximum degree of contraction of each specimen by the use of methacholine,a drug or a solvent therefor was added to the solution, followed by incubation for 110 minutes, and neurokinin A (1×10^-9 M) was allowed to act on the specimen. Phosphoramidon (1×10^-5 M) for inhibiting the degradation of neurokinin A and (±)CP-96345 (3×10^-7 M) for preventing the participation of NK-1 receptors were added 30 minutes and 20 minutes, respectively, before the addition of neurokinin A. The degree of contraction due to neurokinin A was converted to the percentage based on the maximum degree of contraction of the specimen, and then the rate of inhibition by the drug was determined relative to the percentage of contraction of the other specimen used in the case of adding the solvent.

CN(CC(CCN1CCc2nc3c(cc2C1)CCCC3)c1ccc(Cl)c(Cl)c1)C(=O)c1ccccc1 (single isomer, unassigned) [Example 25, 2-[(-)-4-(N-benzoyl-N-methyl)amino-3-(3,4-dichlorophenylbutyll-1,2,3,4,6,7,8,9-octahydro-benzo[b][1,6]naphthyridine fumarate]
IC50 [1]: 56 nM
Inhibition rate, neurokinin A induced contraction [2]: 89.1%

— patent US6294547A, “Naphthyridine deratives or salts thereof” (Nippon Kayaku Kabushiki Kaisha, priority 1997, dated 2001)
